Assay results reported in PubChem BioAssay AID1963845 (Molecular Pharmacology Branch, DTP, NCI, 2024).

System: 429239-143-T-J1-PDC complex spheroid viability
Experiment: Anticancer human tumor 429239-143-T-J1-PDC patient-derived small cell lung carcinoma cell line growth inhibition [POLQ]
Settings: for IC50: curve of first compound; for viability, T/C: stronger effect = lower value
Procedure, shortened: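 PDC + HUVEC + MSC complex spheroids; POLQ inhibitors ± partner drugs; top conc. at/near clinical Cmax, else 10 microM (SN-38 1 microM), half-log dilutions; 37 degrees C, 5% CO2.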

[1] = second compound 0.0316 µM, first compound 0.000316 µM
[2] = second compound 0.0316 µM, first compound 0.001 µM
[3] = second compound 0.0316 µM, first compound 0.00316 µM
[4] = second compound 0.0316 µM, first compound 0.01 µM
[5] = second compound 0.0316 µM, first compound 0.0316 µM
[6] = second compound 0.0316 µM, first compound 0.1 µM
[7] = second compound 0.1 µM, first compound 0.000316 µM
[8] = second compound 0.1 µM, first compound 0.001 µM
[9] = second compound 0.1 µM, first compound 0.00316 µM
[10] = second compound 0.1 µM, first compound 0.01 µM
[11] = second compound 0.1 µM, first compound 0.0316 µM
[12] = second compound 0.1 µM, first compound 0.1 µM
[13] = second compound 0.316 µM, first compound 0.000316 µM
[14] = second compound 0.316 µM, first compound 0.001 µM
[15] = second compound 0.316 µM, first compound 0.00316 µM
[16] = second compound 0.316 µM, first compound 0.01 µM
[17] = second compound 0.316 µM, first compound 0.0316 µM
[18] = second compound 0.316 µM, first compound 0.1 µM
[19] = second compound 1 µM, first compound 0.000316 µM
[20] = second compound 1 µM, first compound 0.001 µM
[21] = second compound 1 µM, first compound 0.00316 µM
[22] = second compound 1 µM, first compound 0.01 µM
[23] = second compound 1 µM, first compound 0.0316 µM
[24] = second compound 1 µM, first compound 0.1 µM
[25] = second compound 3.16 µM, first compound 0.000316 µM
[26] = second compound 3.16 µM, first compound 0.001 µM
[27] = second compound 3.16 µM, first compound 0.00316 µM
[28] = second compound 3.16 µM, first compound 0.01 µM
[29] = second compound 3.16 µM, first compound 0.0316 µM
[30] = second compound 3.16 µM, first compound 0.1 µM
[31] = second compound 10 µM, first compound 0.000316 µM
[32] = second compound 10 µM, first compound 0.001 µM
[33] = second compound 10 µM, first compound 0.00316 µM
[34] = second compound 10 µM, first compound 0.01 µM
[35] = second compound 10 µM, first compound 0.0316 µM
[36] = second compound 10 µM, first compound 0.1 µM
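Also: luminescence signal used as surrogate measure of viable cells; spheroids exposed to compounds for seven days before readout.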
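For viability, T/C in this document: 100% = DMSO vehicle control viability as luminescence relative to vehicle.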

`CC[C@@]1(O)C(=O)OCc2c1cc1n(c2=O)Cc2cc3c(CN(C)C)c(O)ccc3nc2-1` + Cc1cccc(N(C)C(=O)C2C(O)CCN2c2nc(C)cc(C(F)(F)F)c2C#N)c1 was tested, and the IC50 (second compound 0.0316 µM) was 10.5 nM, the IC50 (second compound 0.1 µM) was 15.5 nM and the IC50 (second compound 0.316 µM) was 15.5 nM. The IC50 (second compound 1 µM) was 15.3 nM, the IC50 (second compound 3.16 µM) was 12.7 nM and the IC50 (second compound 10 µM) was 12.8 nM. It also gave a viability, T/C [1] of 102%, a viability, T/C [2] of 98.8% and a viability, T/C [3] of 94.6%. The viability, T/C [4] was 51.7%, the viability, T/C [5] was 18.5% and the viability, T/C [6] was 18.2%. For the same molecule, the viability, T/C [7] was 100%, the viability, T/C [8] was 106% and the viability, T/C [9] was 96.3%. The viability, T/C [10] was 69.9%, the viability, T/C [11] was 15.8% and the viability, T/C [12] was 18.5%. The viability, T/C [13] was 102%, the viability, T/C [14] was 107% and the viability, T/C [15] was 88.7%. The viability, T/C [16] was 70.3%, the viability, T/C [17] was 14.9% and the viability, T/C [18] was 18.3%. It also gave a viability, T/C [19] of 99.1%, a viability, T/C [20] of 105% and a viability, T/C [21] of 103%. It also gave a viability, T/C [22] of 68.8%, a viability, T/C [23] of 17.9% and a viability, T/C [24] of 16.9%. The viability, T/C [25] was 106%, the viability, T/C [26] was 90.4% and the viability, T/C [27] was 94.2%. It also gave a viability, T/C [28] of 58%, a viability, T/C [29] of 19.3% and a viability, T/C [30] of 18.9%. The viability, T/C [31] was 101%, the viability, T/C [32] was 96.2% and the viability, T/C [33] was 94.3%. The viability, T/C [34] was 57.9%, the viability, T/C [35] was 20.4% and the viability, T/C [36] was 19.6%.
With `Cn1ncnc1[C@H]1c2n[nH]c(=O)c3cc(F)cc(c23)N[C@@H]1c1ccc(F)cc1` + Cc1cccc(N(C)C(=O)C2C(O)CCN2c2nc(C)cc(C(F)(F)F)c2C#N)c1 the IC50 (second compound 0.0316 µM) was 19.8 nM, the IC50 (second compound 0.1 µM) was 19 nM and the IC50 (second compound 0.316 µM) was 24.6 nM. The IC50 (second compound 1 µM) was 19.3 nM, the IC50 (second compound 3.16 µM) was 27 nM and the IC50 (second compound 10 µM) was 11.5 nM. It also gave a viability, T/C [1] of 107%, a viability, T/C [2] of 107% and a viability, T/C [3] of 88.4%. The viability, T/C [4] was 62.4%, the viability, T/C [5] was 42.7% and the viability, T/C [6] was 29.6%. The viability, T/C [7] was 87.6%, the viability, T/C [8] was 98.4% and the viability, T/C [9] was 78.1%. For the same molecule, the viability, T/C [10] was 65.9%, the viability, T/C [11] was 34.7% and the viability, T/C [12] was 39.8%. It also gave a viability, T/C [13] of 93.5%, a viability, T/C [14] of 86.2% and a viability, T/C [15] of 73.3%. It also gave a viability, T/C [16] of 65.7%, a viability, T/C [17] of 44.7% and a viability, T/C [18] of 29.2%. The viability, T/C [19] was 97.1%, the viability, T/C [20] was 98.7% and the viability, T/C [21] was 74.6%. It also gave a viability, T/C [22] of 57.8%, a viability, T/C [23] of 47.1% and a viability, T/C [24] of 31.8%. For the same molecule, the viability, T/C [25] was 95.8%, the viability, T/C [26] was 83% and the viability, T/C [27] was 84.4%. The viability, T/C [28] was 60.5%, the viability, T/C [29] was 49.1% and the viability, T/C [30] was 30.2%. For the same molecule, the viability, T/C [31] was 91.8%, the viability, T/C [32] was 86.1% and the viability, T/C [33] was 98.5%. It also gave a viability, T/C [34] of 51.8%, a viability, T/C [35] of 41.2% and a viability, T/C [36] of 32%.
